# Laboratory results as given in patent publication US7439041B2 (Novartis Vaccines and Diagnostics, Inc., priority 2003, dated 2008).
# How the values were obtained:
# PrP^Sc [1] = target: T1, PrP^Sc (Mus musculus, UniProt P04925); assay type: binding; set-up: key to Western Blot: −: Visually evaluated relative signal intensity; +/−: Visually evaluated relative signal intensity; +: Visually evaluated relative signal intensity; ++: Visually evaluated relative signal intensity; +++: Visually evaluated relative signal intensity; ++++: Visually evaluated relative signal intensity; +++++: Visually evaluated relative signal intensity
# PrP^Sc [2] = target: T1, PrP^Sc; assay type: binding
# Target sequence in this assay (P04925 23-230 limits assumed): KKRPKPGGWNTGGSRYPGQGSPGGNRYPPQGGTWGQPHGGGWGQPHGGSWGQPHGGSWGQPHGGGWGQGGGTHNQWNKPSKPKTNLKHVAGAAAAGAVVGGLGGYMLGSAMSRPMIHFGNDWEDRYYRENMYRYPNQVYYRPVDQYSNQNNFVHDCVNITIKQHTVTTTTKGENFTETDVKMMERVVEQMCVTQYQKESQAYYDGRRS
Substance,Western Blot (PrP^Sc [1]),further results
(GGG)KARPKPGG [SEQ ID NO: 105],+,
(GGG)KKRPAPGG [SEQ ID NO: 107],+,
(GGG)QANKPSKPKTN [SEQ ID NO: 89],+ and +++,
(GGG)KKRAKAGG [SEQ ID NO: 98],+,
KKKAGAAAAGAVVGGLGGYMLGSAMDDD [SEQ ID NO: 82],−,
(GGG)AKRPKPGG [SEQ ID NO: 104],+,
C(GG)GGWGQGGGTHNQWNKPSKPKTNLKHV(GGGG)C [SEQ ID NO: 40],+,
(GGG)QWNKASKAKTN [SEQ ID NO: 95],−,
(GGG)QWNKPSKPKTN [SEQ ID NO: 14],+++,
DDDAGAAAAGAVVGGLGGYMLGSAMDDD [SEQ ID NO: 86],−,
(GGG)KKAPKAGG [SEQ ID NO: 108],+,
(GGG)KKRPKPGGWNTGGSRYPGQGS [SEQ ID NO: 66],+,
(GGG)WNKPSKPKT [SEQ ID NO: 75],−,
RPMIHFGNDWEDRYYRENMYR(GGG) [SEQ ID NO: 44],−,
(GGG)QWNAPSKPKTN [SEQ ID NO: 92],− and +,
PHGGGWGQ [SEQ ID NO: 71],−,
(KKK)AGAAAAGAVVGGLGGYMLGSAM [SEQ ID NO: 57],+,
QWNKPSKPKTN(GGG) [SEQ ID NO: 50],+,
(GGG)KKRPKPGGGKKRPKPGG [SEQ ID NO: 72],+,
DKDKGGVGALAGAAVAAGGDKDK [SEQ ID NO: 88],−,
(GGG)QWNKASKPKTN [SEQ ID NO: 90],−,
(GGG)KKRPKPGGWNTGG [SEQ ID NO: 67],++,
(GGG)KKAPKPGG [SEQ ID NO: 106],+,
(GGGG)C(GG)GGWGQGGGTHNQWNKPSKPKTNLKHV(GGGG)C [SEQ ID NO: 35],+,
(GGG)QWNKPSAPKTN [SEQ ID NO: 93],− and +,

Substance,Western Blot (PrP^Sc [1]),further results
(GGG)GPKRKGPK [SEQ ID NO: 73],+,
(GGG)NKPSKPK [SEQ ID NO: 79],−,
GGWGQGGGTHNQWNKPSKPKTNLKHV(GGGG) [SEQ ID NO: 37],+,
QWNKPSKPKTNLKHV(GGG) [SEQ ID NO: 77],++,
(GGG)RPMIHFGNDWEDRYYRENMYR(GG)C [SEQ ID NO: 76],−,
(GGGG)GGWGQGGGTHNQWNKPSKPKTNLKHV [SEQ ID NO: 36],+,
PHGGGWGQPHGGSWGQ [SEQ ID NO: 70],−,
(GG)C(GGG)RPMIHFGNDWEDRYYRENMYR(GGG)C [SEQ ID NO: 46],+,
(GGG)NNKQSPWPTKK [SEQ ID NO: 87],−,
(GGG)KKRAKPGG [SEQ ID NO: 96],+ and ++,
(GGG)KKRPKPGG [SEQ ID NO: 68],+++,"binding to PrPSc in infected mouse brain homogenate samples (Western blot, FIG. 4) (PrP^Sc [1]): strong binding"
DDDAGAAAAGAVVGGLGGYMLGSAM [SEQ ID NO: 83],−,
GGTHNQWNKPSKPKTN [SEQ ID NO: 54],+,
(GGG)QWNKPSKAKTN [SEQ ID NO: 91],− and +,
(KKK)AGAAAAGAVVGGLGG [SEQ ID NO: 65],++,
(GGG)QWNKASKPKTN [SEQ ID NO: 99],+/−,
PHGGGWGQHGGSWGQPHGGSWGQ [SEQ ID NO: 69],−,
(GGG)KPSKPK [SEQ ID NO: 80],−,
(GGG)KKKKKKKK (GGGKKKKKKKK) [SEQ ID NO: 85],+^3,
QWNKPSKPKTN(GGG)QWNKPSKPKTN [SEQ ID NO: 51],+++,ELISA A405nm (PrP^Sc [2]): .923
(GGG)QWNKPSKPATN [SEQ ID NO: 94],− and +,
(GGG)KKRPKPGGGQWNKPSKPKTN [SEQ ID NO: 81],+,
KKKAGAAAAGAVVGGLGGYMLGSAMKKK [SEQ ID NO: 84],+,
GGWGQGGGTHNQWNKPSKPKTN [SEQ ID NO: 53],+,
(GGG)KKRPKAGG [SEQ ID NO: 97],+ and ++,
